Patent US20060293307A1, “Oxazolidinone derivatives as antimicrobials” (priority 2002, published 2006)
In brackets after ≈: the same amount, converted by molar mass. Read-outs that look alike come from different tables or passages of the source.

Key:
Test in all cases: MIC, agar incorporation method
[1] = tested on: Serratia marcescens 12999; format: cell-based
[2] = tested on: S. pyogenes 25147; format: cell-based, Streptococcus pyogenes
[3] = tested on: S. epidermidis 823; format: cell-based, Staphylococcus epidermidis
[4] = tested on: S. pneumoniae AB 31; format: cell-based, Streptococcus pneumoniae
[5] = tested on: S. epidermidis 358; format: cell-based, Staphylococcus epidermidis
[6] = tested on: (MRSA) 562; format: cell-based, Staphylococcus aureus
[7] = tested on: E. faecium 6A (VRE); format: cell-based, Enterococcus faecium
[8] = tested on: S. aureus (Smith 49951); format: cell-based, Staphylococcus aureus
[9] = tested on: Salmonella 205; format: cell-based; conditions: S. No. 26, Salmonella 205
Method: The compounds of the invention display antibacterial activity when tested by the agar incorporation method. The following minimum inhibitory concentrations (μg/ml) were obtained for representative compounds of the invention which are given below in the following tables.
Briefly, the compounds were dissolved in DMSO and doubling dilution of the compounds were incorporated into Meer Hilton agar before solidification. Inoculum was prepared by suspending 4 to 5 colonies into 5 ml of normal saline solution and adjusting the turbidity to 0.5 Macfarland turbidity standard tables (1.5×10^8 CFU/ml), after appropriate dilutions, 10^4 CFU/spot was transfered into the surface of dried plate and incubated for 18 hours (24 hours for MRSN studies). The concentration showing no growth of the inoculated culture was recorded as the MIC. Appropriate ATCC standard strains were simultaneously tested and result recorded only when the MIC's against standard antibiotics were within the acceptable range.

[10] = tested on: S. pneumoniae CS1221; format: cell-based, Streptococcus pneumoniae
[11] = tested on: E. faecium 398(VRE); format: cell-based, Enterococcus faecium
[12] = tested on: S. aureus SG 511; format: cell-based, Staphylococcus aureus
[13] = tested on: S. pneumoniae AB 25; format: cell-based, Streptococcus pneumoniae
[14] = tested on: S. pneumoniae 217; format: cell-based, Streptococcus pneumoniae
[15] = tested on: S. aureus ATCC29213; format: cell-based, Staphylococcus aureus
[16] = tested on: S. pneumoniae AB 16; format: cell-based, Streptococcus pneumoniae
[17] = tested on: S. pneumoniae ATCC 6303; format: cell-based, Streptococcus pneumoniae
[18] = tested on: S. pneumoniae AB 34; format: cell-based, Streptococcus pneumoniae
[19] = tested on: S. aureus (MRSA) ST450; format: cell-based, Staphylococcus aureus
[20] = tested on: E. coli 25922; format: cell-based
[21] = tested on: S. pneumoniae 1251; format: cell-based, Streptococcus pneumoniae
[22] = tested on: S. aureus (MRSA) 15187; format: cell-based, Staphylococcus aureus
[23] = tested on: S. pneumoniae AB 21; format: cell-based, Streptococcus pneumoniae
[24] = tested on: S. pneumoniae AB 22; format: cell-based, Streptococcus pneumoniae
[25] = tested on: S. pneumoniae CS 1687; format: cell-based, Streptococcus pneumoniae
[26] = tested on: Acinetobacter 9956; format: cell-based
[27] = tested on: S. epidermidis (MRSE)32965; format: cell-based, Staphylococcus epidermidis
[28] = tested on: S. haemo ATCC 29970; format: cell-based
[29] = tested on: S. pneumoniae ATCC 49619; format: cell-based, Streptococcus pneumoniae
[30] = tested on: S. pneumoniae AB 14; format: cell-based, Streptococcus pneumoniae
[31] = tested on: Moraxella M1; format: cell-based
[32] = tested on: E. durans 581; format: cell-based
[33] = S. No. 29, Serratia marcescens 12999
[34] = S. No. 9, S. aureus (Smith 49951)
[35] = S. No. 34, S. pneumoniae CS1221
[36] = S. No. 50, S. pneumoniae ATCC 6303
[37] = S. No. 6, S. aureus (MRSA) ST450
[38] = S. No. 4, S. aureus (MRSA) 15187
[39] = S. No. 44, S. pneumoniae CS 1687
[40] = S. No. 13, S. epidermidis (MRSE)32965
[41] = S. No. 48, S. pneumoniae ATCC 49619

CC(=O)NC[C@H]1CN(c2ccc(N3CCN(c4ccc([N+](=O)[O-])s4)CC3)cc2)C(=O)O1 [Compound No. 6, (S)—N-[[3-[4-[N-1-(5-nitro-2-thienyl)piperazinyl]-phenyl]-2-oxo-5-oxazolidinyl]-methyl]-acetamide]
MIC [1, 33]: >16 µg/mL | MIC ([2]; S. No. 52, S. pyogenes 25147): 0.5 µg/mL (≈ 1.12 µM) | MIC ([3]; S. No. 12, S. epidermidis 823): 1 µg/mL (≈ 2.24 µM) | MIC ([4]; S. No. 36, S. pneumoniae AB 31): 0.5 µg/mL (≈ 1.12 µM) | MIC ([5]; S. No. 14, S. epidermidis 358): 1 µg/mL (≈ 2.24 µM) | MIC ([6]; S. No. 8, (MRSA) 562): 1 µg/mL (≈ 2.24 µM) | MIC ([7]; S. No. 21, E. faecium 6A (VRE)): 1 µg/mL (≈ 2.24 µM) | MIC [8, 34]: 1 µg/mL (≈ 2.24 µM) | MIC [9]: >16 µg/mL | MIC [10, 35]: 0.25 µg/mL (≈ 0.561 µM) | MIC ([11]; S. No. 22, E. faecium 398(VRE)): 1 µg/mL (≈ 2.24 µM) | MIC ([12]; S. No. 3, S. aureus SG 511): 2 µg/mL (≈ 4.49 µM) | MIC ([13]; S. No. 45, S. pneumoniae AB 25): 0.5 µg/mL (≈ 1.12 µM) | MIC ([14]; S. No. 38, S. pneumoniae 217): 0.25 µg/mL (≈ 0.561 µM) | MIC ([15]; S. No. 2, S. aureus ATCC29213): 2 µg/mL (≈ 4.49 µM) | MIC ([16]; S. No. 39, S. pneumoniae AB 16): 0.5 µg/mL (≈ 1.12 µM) | MIC [17, 36]: 0.5 µg/mL (≈ 1.12 µM) | MIC ([18]; S. No. 49, S. pneumoniae AB 34): 0.5 µg/mL (≈ 1.12 µM) | MIC [19, 37]: 2 µg/mL (≈ 4.49 µM) | MIC ([20]; S. No. 25, E. coli 25922): >16 µg/mL | MIC ([21]; S. No. 54, S. pneumoniae 1251): 0.25 µg/mL (≈ 0.561 µM) | MIC [22, 38]: 2 µg/mL (≈ 4.49 µM) | MIC ([23]; S. No. 41, S. pneumoniae AB 21): 0.5 µg/mL (≈ 1.12 µM) | MIC ([24]; S. No. 42, S. pneumoniae AB 22): 0.25 µg/mL (≈ 0.561 µM) | MIC [25, 39]: 0.5 µg/mL (≈ 1.12 µM) | MIC ([26]; S. No. 30, Acinetobacter 9956): >16 µg/mL | MIC [27, 40]: 1 µg/mL (≈ 2.24 µM) | MIC ([28]; S. No. 15, S. haemo ATCC 29970): 1 µg/mL (≈ 2.24 µM) | MIC [29, 41]: 0.5 µg/mL (≈ 1.12 µM) | MIC ([30]; S. No. 37, S. pneumoniae AB 14): <0.125 µg/mL | MIC ([31]; S. No. 58, Moraxella M1): >16 µg/mL | MIC ([32]; S. No. 24, E. durans 581): 1 µg/mL (≈ 2.24 µM)

C[C@H](Cl)C(=O)NCC1CN(c2ccc(N3CCN(c4ccc([N+](=O)[O-])s4)CC3)c(F)c2)C(=O)O1 (stereo partly drawn) [Compound No. 7, (S)—N-[[3-[3-Fluoro-4-[N-1-{4-(5-nitro-2-thienyl)piperazinyl}]-phenyl]-2-oxo-5-oxazolidinyl]-methyl]-2-chloro-propionamide]
MIC [1, 33]: >8 µg/mL | MIC ([2]; S. No. 52, S. pyogenes 25147): 2 µg/mL (≈ 3.91 µM) | MIC ([3]; S. No. 12, S. epidermidis 823): 2 µg/mL (≈ 3.91 µM) | MIC ([4]; S. No. 36, S. pneumoniae AB 31): 1 µg/mL (≈ 1.95 µM) | MIC ([5]; S. No. 14, S. epidermidis 358): 2 µg/mL (≈ 3.91 µM) | MIC ([6]; S. No. 8, (MRSA) 562): >8 µg/mL | MIC ([7]; S. No. 21, E. faecium 6A (VRE)): >8 µg/mL | MIC [8, 34]: >8 µg/mL | MIC [9]: >8 µg/mL | MIC [10, 35]: 0.5 µg/mL (≈ 0.977 µM) | MIC ([11]; S. No. 22, E. faecium 398(VRE)): 8 µg/mL (≈ 15.6 µM) | MIC ([12]; S. No. 3, S. aureus SG 511): >8 µg/mL | MIC ([13]; S. No. 45, S. pneumoniae AB 25): 0.5 µg/mL (≈ 0.977 µM) | MIC ([14]; S. No. 38, S. pneumoniae 217): 1 µg/mL (≈ 1.95 µM) | MIC ([15]; S. No. 2, S. aureus ATCC29213): >8 µg/mL | MIC ([16]; S. No. 39, S. pneumoniae AB 16): 1 µg/mL (≈ 1.95 µM) | MIC [17, 36]: 0.5 µg/mL (≈ 0.977 µM) | MIC ([18]; S. No. 49, S. pneumoniae AB 34): 4 µg/mL (≈ 7.81 µM) | MIC [19, 37]: >8 µg/mL | MIC ([20]; S. No. 25, E. coli 25922): >8 µg/mL | MIC ([21]; S. No. 54, S. pneumoniae 1251): 1 µg/mL (≈ 1.95 µM) | MIC [22, 38]: >8 µg/mL | MIC ([23]; S. No. 41, S. pneumoniae AB 21): 1 µg/mL (≈ 1.95 µM) | MIC ([24]; S. No. 42, S. pneumoniae AB 22): 1 µg/mL (≈ 1.95 µM) | MIC [25, 39]: 2 µg/mL (≈ 3.91 µM) | MIC ([26]; S. No. 30, Acinetobacter 9956): >8 µg/mL | MIC [27, 40]: 2 µg/mL (≈ 3.91 µM) | MIC ([28]; S. No. 15, S. haemo ATCC 29970): 2 µg/mL (≈ 3.91 µM) | MIC [29, 41]: 0.5 µg/mL (≈ 0.977 µM) | MIC ([30]; S. No. 37, S. pneumoniae AB 14): 1 µg/mL (≈ 1.95 µM) | MIC ([31]; S. No. 58, Moraxella M1): >8 µg/mL | MIC ([32]; S. No. 24, E. durans 581): 8 µg/mL (≈ 15.6 µM)

O=C(NC[C@H]1CN(c2ccc(N3CCN(c4ccc([N+](=O)[O-])s4)CC3)c(F)c2)C(=O)O1)C(F)F [Compound No. 8, (S)—N-[[3-[3-Fluoro-4-[4-(5-nitro-2-thienyl)-1-piperazinyl]phenyl]-2-oxo-5-oxazolidinyl]methyl]difluoroacetamide]
MIC ([1]; Serratia marcescens, 12999): > 8 µg/mL | MIC ([2]; Streptococcus pyogenes, 25147): 0.25 µg/mL (≈ 0.501 µM) | MIC ([3]; Staphylococcus epidermidis, 823): 0.25 µg/mL (≈ 0.501 µM) | MIC ([4]; Streptococcus pneumoniae, AB31): 0.25 µg/mL (≈ 0.501 µM) | MIC ([5]; Staphylococcus epidermidis, 358): 0.25 µg/mL (≈ 0.501 µM) | MIC ([6]; Staphylococcus aureus, MRSA): 2 µg/mL (≈ 4 µM) | MIC ([7]; Enterococcus faecium, VRE): 1 µg/mL (≈ 2 µM) | MIC ([8]; Staphylococcus aureus): 1 µg/mL (≈ 2 µM) | MIC ([9]; read-out: MIC): > 8 µg/mL | MIC ([10]; Streptococcus pneumoniae, CS1221): 0.125 µg/mL (≈ 0.25 µM) | MIC ([11]; Enterococcus faecium, VRE): 0.25 µg/mL (≈ 0.501 µM) | MIC ([12]; Staphylococcus aureus, SG511): 0.25 µg/mL (≈ 0.501 µM) | MIC ([13]; Streptococcus pneumoniae, AB25): 0.25 µg/mL (≈ 0.501 µM) | MIC ([14]; Streptococcus pneumoniae, 217): 0.25 µg/mL (≈ 0.501 µM) | MIC ([15]; Staphylococcus aureus, ATCC29213): 2 µg/mL (≈ 4 µM) | MIC ([16]; Streptococcus pneumoniae, AB16): 0.25 µg/mL (≈ 0.501 µM) | MIC ([17]; Streptococcus pneumoniae, ATCC6303): 0.25 µg/mL (≈ 0.501 µM) | MIC ([18]; Streptococcus pneumoniae, AB34): 0.5 µg/mL (≈ 1 µM) | MIC ([19]; Staphylococcus aureus, MRSA): 2 µg/mL (≈ 4 µM) | MIC ([20]; Escherichia coli, 25922): > 8 µg/mL | MIC ([21]; Streptococcus pneumoniae, 1251): 0.25 µg/mL (≈ 0.501 µM) | MIC ([22]; Staphylococcus aureus, MRSA): 2 µg/mL (≈ 4 µM) | MIC ([23]; Streptococcus pneumoniae, AB21): 0.25 µg/mL (≈ 0.501 µM) | MIC ([24]; Streptococcus pneumoniae, AB22): 0.25 µg/mL (≈ 0.501 µM) | MIC ([25]; Streptococcus pneumoniae, CS1687): 0.25 µg/mL (≈ 0.501 µM) | MIC ([26]; Acinetobacter, 9956): 8 µg/mL (≈ 16 µM) | MIC ([27]; Staphylococcus epidermidis, MRSE): 0.25 µg/mL (≈ 0.501 µM) | MIC [28]: 0.25 µg/mL (≈ 0.501 µM) | MIC ([29]; Streptococcus pneumoniae, ATCC49619): 0.25 µg/mL (≈ 0.501 µM) | MIC ([30]; Streptococcus pneumoniae, AB14): 0.25 µg/mL (≈ 0.501 µM) | MIC ([31]; Moraxella, M1): 1 µg/mL (≈ 2 µM) | MIC ([32]; Enterococcus durans, 581): 0.25 µg/mL (≈ 0.501 µM)
